In US6716628B2, “Chondrogenesis promoters and indolin-2-one derivatives” (Chugai Seiyaku Kabushiki Kaisha, priority 1999, dated 2004):

What was measured:
[1] = test system: common mouse chondrocyte and adipocyte precursor cell line (CL-1); assay: Uptake of 35S-labeled sulfuric acid into CL-1; format: cell-based; details: 10 μmol/L (A and F also 1 or 5 μmol/L), 48 h culture
[2] = test system: common mouse chondrocyte and adipocyte precursor cell line (CL-1); assay: Uptake of 35S-labeled sulfuric acid into CL-1; format: cell-based; details: 10 μmol/L (A and F also 1 or 5 μmol/L), 48 h culture, uptake in final 24 h
Description: The above-mentioned cell line CL-1 was cultured in a 96-well cell culturing plate (Wallac Corp.) for a liquid scintillation counter (Wallac Corp.) to a cell density of 1000 per well. The medium used was α-MEM (GIBCO Corp.) containing 100 U/mL of penicillin (Meiji Seika Co., Ltd.), 100 μg/mL of streptomycin (Banyu Pharmaceutical Corp.) and 10% fetal bovine serum (INTERGEN Corp.). When the CL-1 cells reached confluency, the medium was exchanged with one containing 10 μmol/L of compounds A, B, C, D, E, F and G, and after 24 hours, ^35S-labeled sulfuric acid was added at 0.5 μCi per well and culturing was continued. For compounds A and F, a medium was also prepared with a concentration of 1 or 5 μmol/L. After 24 hours, the medium was discarded and the cell layer was fixed for 2 hours at room temperature using 0.2 mL of 5% paraformaldehyde (0.1 mol/L phosphate buffer solution (pH 7.4, Wako Pure Chemical Industries) containing 0.4% cetylpyridinium chloride (Wako Pure Chemical Industries). After discarding the fixing solution, it was washed once with the same solution and the washed solution was discarded. After adding 0.1 mL of scintillator (Wallac Corp.) to the cell layer and stirring, the radioactivity was measured with a scintillation counter (Wallac Corp.).

articular cartilage = details: cited from earlier work
[3] = test system: experimental animal models with induced arthritis; details: administered intraarticularly; Lab. Invest. 78(2):133-142, 1998; cited from earlier work

Row | Compound | differentiation of CL-1 to adipocytes [1] | differentiation of CL-1 to chondrocytes (from 35S-labeled sulfuric acid uptake) [2] | synovitis (articular cartilage; in vivo) | arthritis-induced loss of proteoglycans in articular cartilage [3] | chondrogenesis (articular cartilage; intraarticularly administered, Lab. Invest. 71(2):279-290, 1994)
1 | 3R)-1-(2,2-diisopropoxyethyl)-3-((4-methylphenyl) aminocarbonylmethyl)-3-(N′-(4-methylphenyl)ureido)indolin-2-one [Compound E] | clearly suppress | clearly promote | – | – | –
2 | CCOC(CN1C(=O)[C@](CC(=O)Nc2ccc(CC)cc2)(NC(=O)Nc2ccc(C)cc2)c2ccccc21)OCC [Compound B, (3R)-1-(2,2-diethoxyethyl)-3-(4-ethylphenyl)aminocarbonylmethyl-3-(N′-(4-methylphenyl)ureido)indolin-2-one] | clearly suppress | clearly promote | – | – | –
3 | CCOC(CN1C(=O)[C@](CC(=O)Nc2ccc(N(C)C)cc2)(NC(=O)Nc2ccc(C)cc2)c2ccccc21)OCC [Compound C] | clearly suppress | clearly promote | – | – | –
4 | COC(CN1C(=O)C(CC(=O)Nc2ccc(C)cc2)(NC(=O)Nc2ccc(C)cc2)c2ccccc21)OC (stereo not drawn) [Compound D] | clearly suppress | clearly promote | – | – | –
5 | Cc1ccc(NC(=O)C[C@]2(NC(=O)Nc3ccc(C)cc3)C(=O)N(CC(OCCF)OCCF)c3ccccc32)cc1 [Compound F] | clearly suppress | clearly promote | – | – | –
6 | Cc1ccc(NC(=O)C[C@]2(NC(=O)Nc3ccc(C)cc3)C(=O)N(CC(OCCCl)OCCCl)c3ccccc32)cc1 [Compound G, 3R)-1-(2,2-bis(2-chloroethoxy)ethyl)-3-((4-methylphenyl) 3-(N′-(4-methylphenyl)ureido)indolin-2-one] | clearly suppress | clearly promote | – | – | –
7 | TGF-β | – | – | provoke synovitis | – | –
8 | TGF-β1: one isoform of TGF-β (Transforming growth factor β) | – | – | – | suppresses | promote chondrogenesis
